Read-outs that look alike come from different tables or passages of the source.
Tests used:
[1] = ulcerogenic activity test (GI); conditions: in vivo, po
Source text: (The ulcerogenic activity test is hereafter referred to as GI).

[2] = test system: adjuvant-induced polyarthritis syndrome; assay: adjuvant-induced polyarthritis syndrome in rats (inhibition of paw volume); type: in vivo, male Charles River-Wistar Lewis rats; conditions: 504 h, rat, oral, from day before adjuvant, continued for 21 days
Method: The (6,11-dihydro-11-oxodibenz[b,e]oxepinyl)pentanoic acids and derivatives thereof of the present invention are useful as antiarthritic agents due to their ability to suppress arthritis-type inflammation in mammals. […] M. Perron and F. D. Wood, Arthritis and Rheumatism, 2, 440 (1959).
Groups of 10 male Charles River-Wistar Lewis rats weighing 150 to 175 g were individually housed and maintained on a regular rat chow diet. Water was given ad libitrim. The adjuvant was prepared by suspending 75 mg of Mycobacterium butyricum (Defco Laboratories, Detroit, Mich.) in 10 ml of white paraffin oil with continuous stirring for 2 hrs at room temperature prior to administration. Test compounds are prepared by suspending the drug in water, adding one drop of Tween 80 per 10 ml of suspension, and homogenizing. The adjuvant suspension (0.1 ml) was injected into the footpad of the left hind paw of the rat. Test compound suspensions were administered orally (10 ml/kg) the day before adjuvant suspension injection and the administration was continued for 21 days. One group of ten rats was used for the test drug, standard, adjuvant-injected control and non-injected control. Control animals received vehicle (10 ml/kg). Three doses of test drug and one dose of standard preparation were used. Injected and non-injected paw volumes were determined on the day the adjuvant suspension was given, and on subsequent days thereafter (usually days 5, 10, 18, and " the method of C. A. Winter, et al., Proc. Soc. Exp. Biol. Med., 111, 544 (1962).
The percent inhibition of paw volume (injected and non-injected hind paw) was calculated by the following formula: [formula]
ED50 -values, i.e., the dose at which the drug affects a 50% inhibition of paw volume, were estimated by the method of J. T. Litchfield and F. Wilcoxon, J. Pharm. Exp. Ther., 96, 99 (1948) and statistically evaluated by means of the student "t" test.

[3] = injected hind paw, read-out: ED50 (dose at which the drug affects a 50% inhibition of paw volume), injected paw
[4] = non-injected hind paw, read-out: ED50 (dose at which the drug affects a 50% inhibition of paw volume), non-injected paw

| Compound | TD50 ([1]; read-out: GI ID50 (ulcerogenic activity)) | ED50 [2, 3] | ED50 [2, 4] | TD50 [1] |
| --- | --- | --- | --- | --- |
| CC(C(=O)O)c1ccc2c(c1)C(=O)c1ccccc1CO2 (stereo not drawn) [2-(6,11-Dihydro-11-oxodibenz[b,e]-oxepin-2-yl)propionic acid] | 5.5 mg/kg | – | – | – |
| CC(CCC(=O)O)c1ccc2c(c1)C(=O)c1ccccc1CO2 (stereo not drawn) [4-(6,11-Dihydro-11-oxodibenz[b,e]oxepin-2-yl)pentanoic acid] | – | 6.4 mg/kg | 3.4 mg/kg | > 100 mg/kg |
| CCCCC1C(=O)N(c2ccccc2)N(c2ccccc2)C1=O [Phenylbutazone] | – | 12 mg/kg | 6.8 mg/kg | – |
